Test results published in patent US10858316B2, “Small molecule inhibitors of the MCL-1 oncoprotein and uses thereof” (University of Maryland, Baltimore, priority 2015, dated 2020).
Several values for one entry are separate records, joined by “and”; a condition that tells them apart may be missing. Equal values may be shown once. Read-outs that look alike come from different tables or passages of the source.

Legend:
Bcl-xL = Bcl-xL (Homo sapiens (Human), UniProt Q07817); assay: Fluorescence polarization competition assay, Bcl-xL; format: binding; conditions: for Ki: Ki from IC50 by Nikolovska-Coleska equation, NA = no activity, read-out: Bcl-xL Ki; for Bcl-xL Exp ΔG: ΔG from experimental Ki
Bcl-xL, sequence (Q07817 whole entry): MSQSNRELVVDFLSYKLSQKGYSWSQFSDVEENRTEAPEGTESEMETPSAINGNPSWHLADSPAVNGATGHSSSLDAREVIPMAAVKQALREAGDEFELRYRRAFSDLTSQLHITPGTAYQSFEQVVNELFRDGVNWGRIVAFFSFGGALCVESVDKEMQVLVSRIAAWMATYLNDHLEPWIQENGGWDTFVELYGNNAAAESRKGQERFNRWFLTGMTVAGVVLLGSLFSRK
Method: (§1) Fluorescence polarization experiments were conducted using a BMG PHERAstar FS multimode microplate reader equipped with two PMTs for simultaneous measurements of the perpendicular and parallel fluorescence emission. The assays were performed in black polypropylene 384-well microplate (Costar) with a final volume of 20 microliter. […] Regression analysis was carried out using Origin (OriginLab, Northampton, Mass.) to fit the data to the Hill equation (1) to determine the initial binding affinity (KD) and the IC50 in the FPCA. For the fluorescence polarization competition titrations, an equation derived by Nikolovska-Coleska et al. was used to calculate the Ki from the IC50 data.

Mcl-1 [1] = biological target: Mcl-1 (Homo sapiens (Human), UniProt Q07820); assay: Fluorescence polarization competition assay (FPCA), Mcl-1 / FITC-Bak BH3 peptide; format: binding; conditions: for Ki: read-out: Mcl-1 Ki; for Mcl-1 Exp ΔG: ΔG=−RTlnKi from experimental Ki
Mcl-1 (Homo sapiens (Human), UniProt Q07820), sequence (Q07820 172-327): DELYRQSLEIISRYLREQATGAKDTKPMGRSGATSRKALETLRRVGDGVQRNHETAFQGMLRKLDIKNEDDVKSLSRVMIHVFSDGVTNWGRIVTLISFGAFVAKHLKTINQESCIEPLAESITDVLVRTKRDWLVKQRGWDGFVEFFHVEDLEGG
Description: (§2) The tagged protein was initially purified from the crude cell lysate by immobilized metal affinity chromatography (IMAC) chromatography (GE Healthcare Life Sciences), and after dialysis to remove the imidazole the affinity tag was cleaved using PreScission Protease (GE Healthcare Life Sciences). A Sephacryl S-200 size exclusion column was used as a final purification step before the protein was concentrated with a 10,000 MWCO centifugal filter concentrator (Millipore).
as §1
(§3) The target molecules were assayed for their abilities to disrupt the Mcl-1-Bak-BH3 PPI in a fluorescence polarization competition (FPC) assay with Mcl-1 and FITC-labeled Bak-BH3 peptide. Further details on the FPC assay can be found in the Supporting Information.

Mcl-1 [2] = assay: as above; format: binding, human; conditions: for Selectivity, Ki (Bcl-xL) divided by Ki (Mcl-1): Mcl-1 over Bcl-xL; for Exp. ΔG diff.: between Mcl-1 and Bcl-xL, positive favors Mcl-1
Description: as §2, §1, §3

[3] = FPCA with FITC-Bak, Ki from IC50 by Nikolovska-Coleska equation

| Selectivity, Ki (Bcl-xL) divided by Ki (Mcl-1) (Mcl-1 [2]) | Bcl-xL Exp ΔG (Bcl-xL) | Mcl-1 Exp ΔG (Mcl-1 [1]) | Ki (Mcl-1 [1]; FPCA) | SMILES | Ki (Bcl-xL) | Ki (Mcl-1 [1]; [3]) | Exp. ΔG diff. (Mcl-1 [2]) |
| --- | --- | --- | --- | --- | --- | --- | --- |
| 11 | – | – | – | O=C(O)c1cc(S(=O)(=O)NCC2CCCCC2)c2ccccc2c1O [Compound 3g, 4-(N-(Cyclohexylmethyl)sulfamoyl)-1-hydroxy-2-naphthoic Acid] | 77.6 ± 14.3 µM | 7.31 ± 1.42 µM | – |
| – | -9.16 kcal/mol | -9.68 kcal/mol | – | O=C(O)c1cc(S(=O)(=O)Nc2ccc(Oc3ccc(Cl)cc3Cl)cc2)c2ccccc2c1O [3bg; SF-5-302] | – | – | 0.52 kcal/mol |
| – | -8.28 kcal/mol | -8.83 kcal/mol | – | Cc1ccc(Oc2ccc(NS(=O)(=O)c3cc(C(=O)O)c(O)c4ccccc34)cc2)cc1 [3bc; SF-5-301] | – | – | 0.55 kcal/mol |
| 16 | – | – | – | O=C(O)c1cc(S(=O)(=O)NCc2ccc(Cl)cc2)c2ccccc2c1O [Compound 3f, 4-(N-(4-Chlorobenzyl)sulfamoyl)-1-hydroxy-2-naphthoic Acid] | 338 ± 203 µM | 21 ± 3.9 µM | – |
| – | -8.89 kcal/mol | -9.47 kcal/mol | – | O=C(O)c1cc(S(=O)(=O)Nc2ccc(Oc3cccc(Br)c3)cc2)c2ccccc2c1O [3be; SF-5-303] | – | – | 0.58 kcal/mol |
| 8.8 | – | – | 0.033 µM | Cc1cc(Oc2ccc(N(C3CCCC3)S(=O)(=O)c3cc(C(=O)O)c(O)c4ccccc34)cc2)cc(C)c1Cl [Compound 3bk, 4-(N-(4-(4-Chloro-3,5-dimethylphenoxy)phenyl)-N-cyclopentylsulfamoyl)-1-hydroxy-2-naphthoic Acid] | 0.29 ± 0.05 µM | – | – |
| – | -5.60 kcal/mol | -7.00 kcal/mol | – | O=C(O)c1cc(S(=O)(=O)NCC2CCCCC2)c2ccccc2c1O [3g; MEL-3-006] | – | – | 1.40 kcal/mol |
| 3.7 | – | – | – | O=C(O)c1cc(S(=O)(=O)Nc2ccc(Oc3cccc4ccccc34)cc2)c2ccccc2c1O [Compound 3bd, 1-Hydroxy-4-(N-(4-(naphthalen-1-yloxy)phenyl)sulfamoyl)-2-naphthoic Acid] | 0.22 ± 0.06 µM | 0.082 µM | – |
| – | -5.85 kcal/mol | -7.58 kcal/mol | – | O=C(O)c1cc(S(=O)(=O)Nc2ccc(Br)cc2)c2ccccc2c1O [1; 3a] | – | – | 1.73 kcal/mol |
| – | – | – | – | O=C(NS(=O)(=O)c1ccc(NCC2CCOCC2)c([N+](=O)[O-])c1)c1ccc(N(Cc2ccccc2)S(=O)(=O)c2ccc(Oc3ccccc3)cc2)cc1O [LC-5-107 30] | 1.05 ± 0.146 µM | 1.23 ± 0.152 µM | – |
| – | – | – | – | CC(C)CN(c1ccc(C(=O)O)c(O)c1)S(=O)(=O)c1ccccc1 [4jc117-1 13aa] | 154 ± 27.6 µM | 192 ± 37.5 µM | – |
| – | – | – | – | CC(C)CN(c1ccc(O)c(C(=O)O)c1)S(=O)(=O)c1ccccc1 [JY-5-296 18ba] | 49.3 ± 5.03 µM | 46.5 ± 9.82 µM | – |
| – | – | – | – | Cc1cc(CCCNc2ccc(C(=O)O)c(O)c2)cc(C)c1Cl [LC-5-184 36] | 22.7 ± 4.08 µM | 15.2 ± 1.89 µM | – |
| – | – | – | – | CS(=O)(=O)NC(=O)c1ccc(N(Cc2ccccc2)S(=O)(=O)c2ccc(Oc3ccccc3)cc2)cc1O [LC-5-112 27] | 7.22 ± 1.07 µM | 2.94 ± 0.35 µM | – |
| – | – | – | – | O=C(NS(=O)(=O)c1ccccc1)c1ccc(N(Cc2ccccc2)S(=O)(=O)c2ccc(Oc3ccccc3)cc2)cc1O [LC-5-096 28] | 2.34 ± 0.221 µM | 1.9 µM and 1.95 µM | – |
| – | – | – | – | CC(C)CN(c1ccc(O)c(C(=O)O)c1)S(=O)(=O)c1ccc(-c2ccccc2)cc1 [JY-5-300 18bc] | 13.9 ± 3.36 µM | 8.7 ± 2.05 µM | – |
| – | – | – | – | CC(C)CN(c1ccc(O)c(C(=O)O)c1)S(=O)(=O)c1ccc2ccccc2c1 [jy-5-299 18bb] | 44.6 ± 5.93 µM | 7.51 ± 0.84 µM | – |

| SMILES | Selectivity, Ki (Bcl-xL) divided by Ki (Mcl-1) (Mcl-1 [2]) | Bcl-xL Exp ΔG (Bcl-xL) | Mcl-1 Exp ΔG (Mcl-1 [1]) | Ki (Mcl-1 [1]; FPCA) | Ki (Bcl-xL) | Ki (Mcl-1 [1]; [3]) | Exp. ΔG diff. (Mcl-1 [2]) |
| --- | --- | --- | --- | --- | --- | --- | --- |
| O=C(O)c1cc(S(=O)(=O)Nc2ccccc2C(F)(F)F)c2ccccc2c1O [Compound 3u, 1-Hydroxy-4-(N-(2-(trifluoromethyl)phenyl)sulfamoyl)-2-naphthoic Acid] | 4.8 | – | – | – | 19.3 ± 9 µM | 4.05 ± 2.11 µM | – |
| O=C(O)c1cc(S(=O)(=O)Nc2ccc(Br)cc2Br)c2ccccc2c1O [3o; SF-5-290] | – | -7.68 kcal/mol | -8.69 kcal/mol | – | – | – | 1.01 kcal/mol |
